Data on 4 substances can be found in patent US20130109581A1, “POSITIVELY CHARGED SPECIES AS BINDING REAGENTS IN THE SEPARATION OF PROTEIN AGGREGATES FROM MONOMERS” (priority 2009, published 2013).

Common to all, as to format: binding
Assay [1] deals with T1, Abeta 1-42 globulomer (Homo sapiens, UniProt P05067).
T1 construct: beta amyloid (1-42) was monomerized with incubation in hexafluoroisopropanol
The experiment in a line: Globulomer capture assay in CSF (Example 6). The conditions noted are these: 4 ng/mL globulomer spiked; FIG. 29.

For assay [2], the target named is T1, Abeta 1-42 globulomer. The experiment in a line: Globulomer capture assay in CSF (Example 6). The conditions noted are these: Abeta42 globulomer spiked into CSF; reagents on beads. The procedure: A series of new potential aggregate-specific binding reagents were designed as shown below and conjugated onto magnetic Dynal M270 beads as described in Example 2. Typically 7-12 nmol of ligand (each candidate aggregate-specific binding reagent) was coated onto 1 mg of beads.
Aliquots of the beads (typically 3 ul) were added to wells of a 96 well plate, followed by sample (with or without Abeta 1-42 globulomer (an Abeta42 oligomer model) spiked in 80:20 CSF:TBSTT, typically 125 ul). The plate was sealed and incubated for 1 hour at 37° C. with shaking. The plate was washed with aqueous solutions of detergent (typically polyethylene glycol sorbitan monolaurate and n-tetradecyl-N,N-dimethyl-3-ammonio-1-propanesulfonate) to remove ubound material and the residual buffer removed. A denaturing solution (typically 0.1-0.15 N NaOH) was added to each well and the plate heated to 80° C. for 30 min with shaking. After cooling the plate to room temperature, a neutralizing buffer (typically 0.12-0.18 M NaH2PO3 in 0.4% TWEEN20,) was added and the plate was shaken briefly at room temperature. The bead eluate was analyzed using either an Aβ42-specific ELISA or the MSD® 96-Well MULTI-SPOT® Human/Rodent [4G8] Abeta Triplex Ultra-Sensitive Assay from Meso Scale Discovery (Gaithersburg, Md.). For the Aβ42-specific assay, the samples were eluted from the beads and a detection antibody (4G8 HRP) was added to a plate bearing the Aβ42-specific antibody 12F4. The plate was incubated for 1 hour, washed, the substrate was added (SuperSignal West Femto Maximum Sensitivity Substrate from Thermo Fisher, Rockville, Md.), and the luminescence was measured. The MSD plate assay was performed in a similar fashion, according to the manufacturer's protocol.
In this experiment the preferred number of charges within a given scaffold was identified. An Ala/Lys peptide framework was utilized, where the inclusion of each Lys residue increases the peptides' net charge by +1. Six hexapeptides with increasing charge (+1→+6), AAAKAA, AAKKAA, AAKKKA, AKKKKA, AKKKKK, and KKKKKK, were prepared and conjugated on the beads. The ability of these beads to capture Abeta 1-42 globulomer spiked at 1 ng/mL into CSF was tested, and the result is shown in FIG. 25. The globulomer capture level (“42 1 ng/ml” or the closed bars) was compared to the background signal of Abeta 1-42 detected in the unspiked CSF (“42 0 ng/ml”) and the background signal of Abeta 1-40 detected in unspiked CSF (“40 0 ng/ml”) or CSF spiked with AB42 oligomers “40 1 ng/ml”. The charge density, as conjugated to the magnetic beads, of each reagent evaluated in this experiment is shown below in Table 8.

The target in a further assay is Abeta 42 globulomer (Homo sapiens, UniProt P05067). The assay is described as follows: NMPA with detergent washing after PSR1 pulldown: globulomer detection.
In the next assay the target is T2, normal CSF Aβ42 (Homo sapiens, UniProt P05067).
T2 construct: reduced the detection of normal CSF Aβ42 to the background levels; from tissue; host or cells: pooled normal cerebrospinal fluid
The experiment in a line: NMPA with detergent washing: background from unspiked CSF, Abeta42. The settings on record: for detection of normal CSF Aβ42 (background): 1% detergent wash after PSR1 pulldown, FIG. 35. The procedure:
Second, two neutral detergents, polyethylene glycol sorbitan monolaurate (available as TWEEN 20 from Sigma-Aldrich, St. Louis, Mo.) and n-tetradecyl-N,N-dimethyl-3-ammonio-1-propanesulfonate (available as ZWITTERGENT 3-14 from EMI) Chemicals, Gibbstown, N.J.) were used to treat the globulomer-spiked CSF samples that had been contacted with PSR1 beads. For each assay, a mixture of 30 μl of PSR1 beads (coated at about 7-12 nmol PSR1 ligand/mg DYNAL beads, which were used in this example and in the following examples unless otherwise stated) and 70 μl of 1×TBSTT was immediately pipetted into each well on the pulldown plate. The liquid was removed on a magnetic separator. Fifty micro liters of 5×TBSTT was added to each well. The beads were suspended by briefly shaking at 750 rpm. Next […] of TBSTT or CSF sample without globulomer was added to each well. The pulldown plate was sealed and incubated at 37° C. for 1 hour with shaking at 500 rpm. After incubation, the beads were washed 8 times with TBST on the plate washer. After the plate wash, residual TBST buffer was removed from the beads on the magnetic separator. The beads were then incubated with 100 μl of either TBS, 1% Tween20 or 1% Zwittergent 3-14 for 30 minutes at room temperature at 750 rpm, (followed by an additional 8 washes with TBST on the plate washer. After removing residual TBST on the magnetic separator, 20 μl of denaturing solution, typically 0.1-0.15 N NaOH, was added to the beads. The plate was covered with an aluminum foil plate sealer and incubated at 80° C. for 30 minutes with shaking at 750 rpm. After incubation, the plate was cooled to room temperature and twenty micro liters of neutralizing solution, typically 0.12-0.18 M NaH2PO4+0.4% Tween20) was added into each well and the plate was incubated at room temperature for 5 minutes with shaking at 750 rpm. […] MSD Abeta Triplex Assay was preformed according to the manufacturer's instructions.
(§1) A summary of the assay results and calculated signal/noise is shown below in Table 17.

In the next assay the target is T3, normal CSF Aβ40 (Homo sapiens, UniProt P05067).
T3 construct: from tissue; host or cells: pooled cerebrospinal fluid (normal or AD)
The assay is described as follows: NMPA with detergent washing: background from CSF, Abeta40. The conditions noted are these: 1% detergent wash after PSR1 pulldown; FIG. 35. Here is the method: Second, two neutral detergents, polyethylene glycol sorbitan monolaurate (available as TWEEN 20 from Sigma-Aldrich, St. Louis, Mo.) and n-tetradecyl-N,N-dimethyl-3-ammonio-1-propanesulfonate (available as ZWITTERGENT 3-14 from EMI) Chemicals, Gibbstown, N.J.) were used to treat the globulomer-spiked CSF samples that had been contacted with PSR1 beads. For each assay, a mixture of 30 μl of PSR1 beads (coated at about 7-12 nmol PSR1 ligand/mg DYNAL beads, which were used in this example and in the following examples unless otherwise stated) and 70 μl of 1×TBSTT was immediately pipetted into each well on the pulldown plate. The liquid was removed on a magnetic separator. Fifty micro liters of 5×TBSTT was added to each well. The beads were suspended by briefly shaking at 750 rpm. Next […] of TBSTT or CSF sample without globulomer was added to each well. The pulldown plate was sealed and incubated at 37° C. for 1 hour with shaking at 500 rpm. After incubation, the beads were washed 8 times with TBST on the plate washer. After the plate wash, residual TBST buffer was removed from the beads on the magnetic separator. […]
as §1

Setting [3] is: CSF, PSR1 beads treated with detergent post capture.
The mark [4] stands for this setting: pulldown CSF, PSR1 beads washed with 1% detergent.

“Also recorded” adds a separate entry of the source. Like-named read-outs stand apart in the source and are kept apart here.

On to AKFKKK, for which the globulomer capture entry with Abeta 1-42 globulomer [1] was “improved globulomer capture relative to nonaromatic residues”.

As to FKFKKK, the globulomer capture result in the assay with Abeta 1-42 globulomer [2] was “captured globulomers specifically”; with Abeta 1-42 globulomer [1], “improved globulomer capture relative to nonaromatic residues”.

Regarding “Polyethylene glycol sorbitan monolaurate [TW20]”, at Abeta 42 globulomer, the “LoD of globulomer (Cal)” value was found to be 2.52 pg/mL; the “LoD of globulomer, RLU (S/N = 2)” value was 211 RLU; the “S/N at 25.3 pg/mL globulomer” value stood at 11.0; the “signal/noise of globulomer detection” value is “improved the signal/noise of globulomer detection”. In addition, the “detection of normal CSF Aβ42 (background)” value on normal CSF Aβ42 was “reduced the detection of normal CSF Aβ42 to the background levels observed when PSR1 is incubated with TBSTT buffer alone”. Further, the “detection of normal CSF Aβ40 (background)” value at normal CSF Aβ40 was “reduced the detection of normal CSF Aβ40 significantly”.

For “n-Tetradecyl-N,N-dimethyl-3-ammonio-1-propanesulfonate [ZW3-14]”, the “signal/noise of globulomer detection” value on Abeta 42 globulomer was “improved the signal/noise of globulomer detection; also recorded: improved the signal/noise ratio for Abeta 42 globulomer detection more significantly”. In addition, the “S/N Abeta 42 globulomer-spiked/unspiked” value at Abeta 42 globulomer (0.5 ng/mL vs 0 ng/mL globulomer) was determined as 7.7. For the same substance, the “S/N Abeta 42 globulomer-spiked/Abeta 40” value on Abeta 42 globulomer (Abeta 42 RLU at 0.5 ng/mL over average Abeta 40 RLU) is recorded as 2.2. Further, the “Abeta 42 RLU, 0.5 ng/mL Abeta 42 globulomer, Average” value on Abeta 42 globulomer (setting [3]) is 842.0 RLU. For the same substance, at Abeta 42 globulomer (setting [4]), the “LoD of globulomer (Cal)” value was 2.33 pg/mL; the “LoD of globulomer, RLU (S/N = 2)” value stood at 199 RLU; the “S/N at 25.3 pg/mL globulomer” value is given as 10.3. Moreover, the “detection of normal CSF Aβ42 (background)” value at normal CSF Aβ42 was “reduced the detection of normal CSF Aβ42 to the background levels observed when PSR1 is incubated with TBSTT buffer alone”. Also, the “Abeta 42 RLU, 0 ng/mL Abeta 42 globulomer, Average” value at normal CSF Aβ42 (setting [3]) was determined as 110.0 RLU. The “detection of normal CSF Aβ40 (background)” value at normal CSF Aβ40 is “reduced the detection of normal CSF Aβ40 significantly”.
